Here are results for three compounds from ChEMBL document CHEMBL1135074, “Two neolignans from Perilla frutescens and their inhibition of nitric oxide synthase and tumor necrosis factor-alpha expression in murine macrophage cell line RAW 264.7” (Bioorg Med Chem Lett, 2002).

The subject of one assay is L929. Nature of the assay: Relative cytotoxicity measured as inhibition of LPS induced TNF alpha production in L929 cells at 10 uM. Set-up: scale not given: the % may be the effect or the level left. Format: functional, Mus musculus.
The nature of assay [1]: Tested for the inhibition of nitric oxide syntheses in murine macrophage cell line RAW 264.7. The class given is cell-based.
The test system of another assay is RAW. Nature of the assay: Tested for the inhibition of nitric oxide syntheses in murine macrophage cell line RAW 264.7 at a concentration of 30 uM. Format: cell-based.
Another assay concerns RAW264.7. Nature of the assay: Tested for the inhibition of NO production in RAW 264.7 cells. Format: functional, Mus musculus.

In turn, `COc1cc(OC)c([C@@H]2[C@@H](C)[C@H](C)[C@H]2c2cc(OC)c(OC)cc2OC)cc1OC` showed an Activity in the assay on L929 of 26%. Moreover, in assay [1], inhibition was half-maximal at 5.9 µM (IC50). Besides, the inhibition (usually how much of the control response was suppressed) with RAW worked out at 17%.
Take `COc1cc(OC)c([C@@H]2[C@H](C)[C@@H](C)[C@H]2c2cc(OC)c(OC)cc2OC)cc1OC` [MAGNOSALIN]: the Activity in the assay on L929 was 84%. Also, the IC50 – broadly, the point on the concentration scale where inhibition reaches its midpoint – in assay [1] worked out at 53.5 µM.
For `N=C(N)NN` [PIMAGEDINE], the Inhibition (in general, the relative decrease from the control value, in per cent) with RAW264.7 is 79%.
